According to patent US8008303B2, “Biphenyl derivatives and their use in treating hepatitis C” (AstraZeneca AB, priority 2005, dated 2011):
Like-named read-outs stand apart in the source and are kept apart here.

Assays:
[1] = tested on: HCV replicon cells Huh 9B; assay: HCV replicon assay (luciferase readout); assay type: cell-based
In short: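 Compounds, made up at twice final strength (final DMSO 1%), were added to subgenomic replicon cells one day after plating. Incubation then ran 72 h at 37 °C, 5% CO2, without G418. Replication was quantified as firefly luciferase luminescence in lysed cells, with cytotoxicity assessed on a duplicate clear plate.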

[2] = tested on: HCV replicon cells Huh 9B; assay type: cell-based
[3] = Hepatitis C virus, 72 h, concentration reducing replicon level (luciferase activity) by 50% vs untreated cell control, 72 h incubation
[4] = concentration reducing total cell area by 50% relative to DMSO controls, methylene blue, absorbance 620 nm, 72 h incubation

Structure (SMILES) | IC50 [1, 3] [nM] | TD50 [2, 4] | IC50 [1] [nM] | TD50 [2]
Cc1cc(NC(=O)C2CC2)ccc1-c1cccc(C(=O)Nc2ccc(CN3CCS(=O)(=O)CC3)cc2)c1 [Example 131, 4′-(Cyclopropanecarbonyl-amino)-2′-methyl-biphenyl-3-carboxylic acid [4-(1,1-dioxo-1lambda*6*-thiomorpholin-4-ylmethyl)-phenyl]-amide] | 1000 to 5000 | * (* < 50 μM) | – | –
Cc1ccc(NC(=O)C(C)C)cc1-c1ccc(C(=O)Nc2ccc(CN3CCS(=O)(=O)CC3)cc2)cc1 [Example 183, 5′-Isobutyrylamino-2′-methyl-biphenyl-4-carboxylic acid [4-(1,1-dioxo-1lambda*6*-thiomorpholin-4-ylmethyl)-phenyl]-amide] | < 1000 | * (* < 50 μM) | – | –
CCCS(=O)(=O)N1CCN(Cc2ccc(NC(=O)c3ccc(-c4cc(NC(=O)C5CC5)ccc4C)cc3)cc2)CC1 [Example 243, 5′-(Cyclopropanecarbonyl-amino)-2′-methyl-biphenyl-4-carboxylic acid [4-(4-propane-1-sulfonyl-piperazin-1-ylmethyl)-phenyl]-amide] | < 1000 | * (* < 50 μM) | – | –
COc1cccc(C(=O)Nc2ccc(-c3cc(C(=O)Nc4ccc(N5CCOCC5)cc4)ccc3C)cc2)c1 [Example 107, 4′-(3-Methoxy-benzoylamino)-6-methyl-biphenyl-3-carboxylic acid (4-morpholin-4-yl-phenyl)-amide] | < 1000 | ** (** > 50 μM) | – | –
Cc1cc(NC(=O)c2ccco2)ccc1-c1cccc(C(=O)Nc2ccc(CN3CCS(=O)(=O)CC3)cc2)c1 [Example 133, Furan-2-carboxylic acid {3′-[4-(1,1-dioxo-1lambda*6*-thiomorpholin-4-ylmethyl)-phenylcarbamoyl]-2-methyl-biphenyl-4-yl}-amide] | 1000 to 5000 | * (* < 50 μM) | – | –
Cc1ccc(C(=O)Nc2ccc(N3CCOCC3)cc2)cc1-c1ccc(C(=O)Nc2ccc(Br)c(Cl)c2)cc1 [Example 30, 6-Methyl-biphenyl-3,4′-dicarboxylic acid 4′-[(4-bromo-3-chloro-phenyl)-amide] 3-[(4-morpholin-4-yl-phenyl)-amide]] | – | – | 1000 to 5000 | ** (key: * < 50 μM; ** > 50 μM)
Cc1ccc(C(=O)Nc2ccc(N3CCOCC3)cc2)cc1-c1ccc(C(=O)Nc2ccc3c(c2)OCO3)cc1 [Example 16, 6-Methyl-biphenyl-3,4′-dicarboxylic acid 4′-benzo[1,3]dioxol-5-ylamide 3-[(4-morpholin-4-yl-phenyl)-amide]] | – | – | 1000 to 5000 | ** (key: * < 50 μM; ** > 50 μM)
CNCC(=O)Nc1ccc(OC(F)(F)F)c(-c2ccc(C(=O)Nc3ccc(CN4CCN(S(=O)(=O)N(C)C)CC4)cc3)cc2)c1 [Example 240, 5′-(2-Methylamino-acetylamino)-2′-trifluoromethoxy-biphenyl-4-carboxylic acid [4-(4-dimethylsulfamoyl-piperazin-1-ylmethyl)-phenyl]-amide] | < 1000 | * (* < 50 μM) | – | –
Cc1cc(C(=O)Nc2ccc(N3CCOCC3)cc2)ccc1-c1cccc(C(=O)Nc2ccc(CN3CCS(=O)(=O)CC3)cc2)c1 [Example 135, 2′-Methyl-biphenyl-3,4′-dicarboxylic acid 3-{[4-(1,1-dioxo-1 lambda*6*-thiomorpholin-4-ylmethyl)-phenyl]-amide} 4′-[(4-morpholin-4-yl-phenyl)-amide]] | – | – | < 1000 | * (key: * < 50 μM; ** > 50 μM)
Cc1ccc(C(=O)Nc2ccc(N3CCOCC3)cc2)cc1-c1ccc(C(=O)Nc2ccc(CN3CCS(=O)(=O)CC3)cc2)cc1 [Example 50, 6-Methyl-biphenyl-3,4′-dicarboxylic acid 4′-{[4-(1,1-dioxo-1lambda*6*-thiomorpholin-4-ylmethyl)-phenyl]-amide} 3-[(4-morpholin-4-yl-phenyl)-amide]] | – | – | < 1000 | ** (key: * < 50 μM; ** > 50 μM)
